Data set [1] in a line: Biopharmaceutics Classification System (BCS) classification. Format: physicochemical. Particulars: based on permeability and solubility. As for the experimental part:
(§1) Tasquinimod is a compound having high gastrointestinal permeability and high aqueous solubility. […] For a drug compound to be classified as “highly soluble” according to the BCS, the highest single therapeutic dose thereof should be completely soluble in 250 ml or less of aqueous media over the pH range of 1.2-6.8 at 37±1° C. […] Based on these properties, tasquinimod is classified as a BCS Class I compound. […] In view of the high water-solubility of tasquinimod, the low dissolution rate of tasquinimod particles in aqueous phase was completely unexpected. A low dissolution rate is susceptible of reducing the bioavailability and may pose an obstacle to an efficient oral administration of an otherwise therapeutically active compound.

A short description of data set [2]: aqueous solubility of tasquinimod. Format: physicochemical. As for the experimental part:
as §1

The nature of the next data set: pKa of tasquinimod. Format: physicochemical. Particulars: weak acid.
The test system of the next data set is Caco-2 cell model. The experiment in a line: gastrointestinal permeability using the Caco-2 cell model. Format: in vitro ADME. The method, then: as §1
Assay in data set [3]: as above
Format: in vitro ADME. Particulars: human, read-out: permeability coefficient. As for the experimental part: as §1

In brackets after ≈: the same amount, converted by molar mass.

On to `COc1cccc2c1c(O)c(C(=O)N(C)c1ccc(C(F)(F)F)cc1)c(=O)n2C` [tasquinimod, 4-hydroxy-5-methoxy-N, 1-dimethyl-2-oxo-N-[4-(trifluoromethyl)phenyl]-1,2-dihydroquinoline-3-carboxamide], for which the BCS class entry in data set [1] is recorded as “BCS Class I”. The “solubility relative to BCS "highly soluble" cut-off value” was “ten-fold” in data set [2] (aqueous media over the pH range of 1.2-6.8 at 37±1° C.) and 50 fold in data set [2] (physiological pH at 7.4). In data set [2] (aqueous medium, pH 7.4, aqueous buffer), this molecule registered a solubility of 250 µg/mL (≈ 615 µM). Besides, in “pKa of tasquinimod”, the pKa was 6.5. For the same molecule, in the data set on Caco-2 cell model, the “permeability ranking according to the Biopharmaceutics Classification System (BCS)” value is “highly permeable”. Besides, the Papp in data set [3] came out at 43.5 ± 0.9 ×10⁻⁶ cm/s.

What is called solubility is the dissolved amount per volume that the medium holds. A higher solubility goes with a readily soluble substance. Usually pKa stands for the pH at which an ionisable group is half protonated. Low readings indicate a group that gives up its proton readily, high ones a group that holds its proton tightly.

Source of the values: patent publication US12485095B2, “Plurality of tasquinimod particles and use thereof” (ACTIVE BIOTECH AB, priority 2021, dated 2025).
